The target of assay [1] is T1, Dual specificity tyrosine-phosphorylation-regulated kinase 2 (Homo sapiens, UniProt Q92630).
T1 sequence (Q92630 whole entry): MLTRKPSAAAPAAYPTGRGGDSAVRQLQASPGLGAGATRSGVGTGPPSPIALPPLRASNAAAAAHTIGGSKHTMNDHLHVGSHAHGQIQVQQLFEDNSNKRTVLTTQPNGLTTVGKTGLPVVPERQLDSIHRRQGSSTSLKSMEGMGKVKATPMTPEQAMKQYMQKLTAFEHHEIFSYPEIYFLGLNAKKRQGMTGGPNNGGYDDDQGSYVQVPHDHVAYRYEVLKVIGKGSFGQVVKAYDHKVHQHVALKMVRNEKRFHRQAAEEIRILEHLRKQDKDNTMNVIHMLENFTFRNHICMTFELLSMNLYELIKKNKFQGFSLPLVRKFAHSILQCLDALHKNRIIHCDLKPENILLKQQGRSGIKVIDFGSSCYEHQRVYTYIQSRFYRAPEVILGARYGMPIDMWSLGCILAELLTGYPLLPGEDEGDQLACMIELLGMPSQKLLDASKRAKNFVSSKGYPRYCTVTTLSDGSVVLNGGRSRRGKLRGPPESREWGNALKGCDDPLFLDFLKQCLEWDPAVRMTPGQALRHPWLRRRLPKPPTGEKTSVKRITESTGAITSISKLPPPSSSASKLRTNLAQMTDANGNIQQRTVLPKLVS
As to the kind of experiment: Inhibition of hexa His-tagged DYRK2 (72 to 479 residues) (unknown origin) expressed in Escherichia coli BL21 (DE3) assessed as substrate phosphorylation using 4E-BP1 as substrate in presence of [gamma33-P]ATP incubated for 2 hrs by scintillation counter analysis.

Assay [2] relates to CWR22R. Kind of assay: Induction of cell cycle arrest in human 22Rv1 cells assessed as accumulation of cells at G2 phase at 40 uM incubated for 24 hrs by propidium iodide based flow cytometric analysis (Rvb=24.21 %). The assay is classed as functional. Background: Flow cytometry measures light scatter and fluorescence of single cells or particles in a stream.
Assay [3] concerns DU-145. Kind of assay: Induction of cell cycle arrest in human DU-145 cells assessed as accumulation of cells at G1 phase at 40 uM incubated for 24 hrs by propidium iodide based flow cytometric analysis (Rvb= 53.46%). Format: functional.
For assay [4], the system named is DU-145. Kind of assay: Induction of apoptosis in human DU-145 cells assessed as apoptotis rate at 40 uM incubated for 24 hrs by Annexin V-FITC and PI staining based flow cytometry (Rvb= 4.36%). Format: functional.
In assay [5] the test system is CWR22R. Kind of assay: Induction of apoptosis in human 22Rv1 cells assessed as apoptotis rate at 40 uM incubated for 24 hrs by Annexin V-FITC and PI staining based flow cytometry (Rvb= 3.08%). Format: functional.
For assay [6], the system named is CWR22R. Kind of assay: Induction of cell cycle arrest in human 22Rv1 cells assessed as accumulation of cells at G1 phase at 40 uM incubated for 24 hrs by propidium iodide based flow cytometric analysis (Rvb= 55.28%). The assay is classed as functional.
The subject of assay [7] is CWR22R. As to the kind of experiment: Induction of cell cycle arrest in human 22Rv1 cells assessed as accumulation of cells at S phase at 40 uM incubated for 24 hrs by propidium iodide based flow cytometric analysis (Rvb=20.51 %). The assay is classed as functional.
The test system of assay [8] is DU-145. As to the kind of experiment: Induction of cell cycle arrest in human DU-145 cells assessed as accumulation of cells at G2 phase at 40 uM incubated for 24 hrs by propidium iodide based flow cytometric analysis (Rvb= 17.52%). Format: functional.
Assay [9] deals with DU-145. Kind of assay: Induction of cell cycle arrest in human DU-145 cells assessed as accumulation of cells at S phase at 40 uM incubated for 24 hrs by propidium iodide based flow cytometric analysis (Rvb= 29.02%). The assay is classed as functional.
For assay [10], the system named is DU-145. As to the kind of experiment: Antitumor activity against human DU-145 xenografted in BALB/c nude mouse assessed as tumor growth inhibition at 100 mg/kg,po qd for 21 days. Format: functional, organism-based. The following applies: time 21.0 day.
The target in assay [11] is T1, Dual specificity tyrosine-phosphorylation-regulated kinase 2. As to the kind of experiment: Inhibition of human GST-tagged DYRK2 expressed in Escherichia coli BL21 (DE3) using woodtide as substrate in presence of [gamma33-P]ATP incubated for 30 mins by Scintillation counter analysis.

Usually IC50 stands for the point on the concentration scale where inhibition reaches its midpoint.

Calls of active or inactive are those of the source. The calls are words filed in the database; no cut-off is given here.

Consider `O=C(c1ccc(Nc2ncc(F)c(-c3ccc4scnc4c3)n2)nc1)N1CCN(C(=O)C2CC2)CC1`, for which the IC50 in assay [1] is 33 nM.
Regarding `CNC(=O)c1ccc(N2C(=S)N(c3ccc(C#N)c(C(F)(F)F)c3)C(=O)C2(C)C)cc1F` [ENZALUTAMIDE], the Activity turned out to be 21.43% in the assay on CWR22R [2]; 56.68% in the assay with DU-145 [3]; 8.01% with DU-145 [4]; 5.85% in the assay on CWR22R [5]; 62.89% with CWR22R [6]; 15.68% in the assay with CWR22R [7]. Also, the Activity with DU-145 [8] was determined as 16.78%; in the assay on DU-145 [9], 26.54%. In the assay on DU-145 [10], the result was Active.
Turning to `CC(C)(C)OC(=O)N1CCN(Cc2ccc(Nc3nccc(-c4ccc5scnc5c4)n3)nc2)CC1`, the IC50 in assay [1] was above 10000 nM.
Take `CC(C)(C)OC(=O)N1CCN(Cc2ccc(Nc3ncc(F)c(-c4ccc5scnc5c4)n3)nc2)CC1`: the IC50 in assay [1] was above 10000 nM.
Regarding `CC(C)(C)OC(=O)N1CCN(C(=O)c2ccc(Nc3ncc(F)c(-c4ccc5scnc5c4)n3)cn2)CC1`, the IC50 in [1] turned out to be 16 nM.
Take `COc1cnc(Nc2ccc(CN3CCN(C(=O)OC(C)(C)C)CC3)cn2)nc1-c1ccc2scnc2c1`: the IC50 in assay [1] is above 10000 nM.
Consider `COc1cc(/C=C/C(=O)CC(=O)/C=C/c2ccc(O)c(OC)c2)ccc1O` [CURCUMIN], for which, in [11], the IC50 is 2.5 nM.
For `Cc1cnc(Nc2ccc(CN3CCN(C(=O)OC(C)(C)C)CC3)cn2)nc1-c1ccc2scnc2c1`, in [1], the IC50 was above 10000 nM.

Values taken from ChEMBL document CHEMBL5247641, “Discovery of Potent DYRK2 Inhibitors with High Selectivity, Great Solubility, and Excellent Safety Properties for the Treatment of Prostate Cancer” (J Med Chem, 2023).
